{
  "source": "paper PMC5218480",
  "about": "(PLoS ONE, 2017)",
  "system": "MV-4-11 cells",
  "experiment": "Gene expression microarray analysis (Affymetrix PrimeView) and GSEA",
  "type": "cell-based, human",
  "design": "RFU PODN (11730768_x_at) / Fold change /veh PODN (11730768_x_at) / RFU LINC00158 (11744669_a_at) / Fold change /veh LINC00158 (11744669_a_at) / RFU DUSP10 (11751237_a_at) / Fold change /veh DUSP10 (11751237_a_at) / RFU ID3 (11757404_x_at) / Fold change /veh ID3 (11757404_x_at) / RFU PLEKHG5 (11737974_s_at) / Fold change /veh PLEKHG5 (11737974_s_at) / RFU LRRC4B (11730491_at) / Fold change /veh LRRC4B (11730491_at) / RFU GIMAP4 (11747438_a_at) / Fold change /veh GIMAP4 (11747438_a_at) / RFU KRT8 (11758183_x_at) / Fold change /veh KRT8 (11758183_x_at) / RFU CNN1 (11734310_a_at) / Fold change /veh CNN1 (11734310_a_at) / RFU VPS37D (11726825_at) / Fold change /veh VPS37D (11726825_at) / RFU C10orf10 (11716522_x_at) / Fold change /veh C10orf10 (11716522_x_at) / RFU KIR2DL2 /// KIR2DL4 /// KIR2DL5A /// KIR2DL5B /// KIR2DS1 /// KIR2DS2 /// KIR2DS3 /// KIR2DS4 /// KIR3DL3 /// KIR3DL3 /// KIR3DS1 (11738374_at) / Fold change /veh KIR2DL2 /// KIR2DL4 /// KIR2DL5A /// KIR2DL5B /// KIR2DS1 /// KIR2DS2 /// KIR2DS3 /// KIR2DS4 /// KIR3DL3 /// KIR3DL3 /// KIR3DS1 (11738374_at) / RFU C1QL1 (11718748_at) / Fold change /veh C1QL1 (11718748_at) / RFU TMPRSS4 (11747572_a_at) / Fold change /veh TMPRSS4 (11747572_a_at) / RFU HAMP (11756126_x_at) / Fold change /veh HAMP (11756126_x_at) / RFU RNFT2 (11725882_a_at) / Fold change /veh RNFT2 (11725882_a_at) / RFU NR4A2 (11747474_a_at) / Fold change /veh NR4A2 (11747474_a_at) / RFU ABCC12 (11746883_a_at) / Fold change /veh ABCC12 (11746883_a_at) / RFU TMEM136 (11760407_x_at) / Fold change /veh TMEM136 (11760407_x_at) / RFU CLDN22 /// WWC2 (11732394_at) / Fold change /veh CLDN22 /// WWC2 (11732394_at) / RFU HLA-DPB1 (11760878_x_at) / Fold change /veh HLA-DPB1 (11760878_x_at) / RFU SPINT1 (11716480_a_at) / Fold change /veh SPINT1 (11716480_a_at) / RFU GAP43 (11754022_s_at) / Fold change /veh GAP43 (11754022_s_at) / RFU A4GNT (11735810_at) / Fold change /veh A4GNT (11735810_at) / RFU PRB3 (11715151_x_at) / Fold change /veh PRB3 (11715151_x_at) / RFU TUBB4B (11761932_at) / Fold change /veh TUBB4B (11761932_at) / RFU CAPN14 (11732068_a_at) / Fold change /veh CAPN14 (11732068_a_at) / RFU TMCC2 (11721928_a_at) / Fold change /veh TMCC2 (11721928_a_at) / RFU IRGQ (11745062_a_at) / Fold change /veh IRGQ (11745062_a_at) / RFU FAM174B (11720279_a_at) / Fold change /veh FAM174B (11720279_a_at) / RFU TMPRSS4 (11748680_a_at) / Fold change /veh TMPRSS4 (11748680_a_at) / RFU FAM212B (11763350_a_at) / Fold change /veh FAM212B (11763350_a_at) / RFU PLEKHG5 (11743358_a_at) / Fold change /veh PLEKHG5 (11743358_a_at) / RFU ZSCAN30 (11745921_a_at) / Fold change /veh ZSCAN30 (11745921_a_at) / RFU CMKLR1 (11741424_a_at) / Fold change /veh CMKLR1 (11741424_a_at) / RFU LOC101060620 /// MAPK8IP1 (11723275_at) / Fold change /veh LOC101060620 /// MAPK8IP1 (11723275_at) / RFU SPTSSB (11747773_x_at) / Fold change /veh SPTSSB (11747773_x_at) / RFU PRSS12 (11739890_at) / Fold change /veh PRSS12 (11739890_at) / RFU BIN1 (11741810_x_at) / Fold change /veh BIN1 (11741810_x_at) / RFU WNT11 (11732464_a_at) / Fold change /veh WNT11 (11732464_a_at) / RFU C10orf10 (11716521_a_at) / Fold change /veh C10orf10 (11716521_a_at) / RFU C5orf56 (11738089_at) / Fold change /veh C5orf56 (11738089_at) / RFU CYB561 (11721691_x_at) / Fold change /veh CYB561 (11721691_x_at) / RFU ANKRD19P (11752326_a_at) / Fold change /veh ANKRD19P (11752326_a_at) / RFU OR2T12 /// OR2T33 /// OR2T8 (11738714_s_at) / Fold change /veh OR2T12 /// OR2T33 /// OR2T8 (11738714_s_at) / RFU VCAN (11748164_a_at) / Fold change /veh VCAN (11748164_a_at) / RFU JSRP1 (11732532_at) / Fold change /veh JSRP1 (11732532_at) / RFU KRTAP10-11 (11738290_x_at) / Fold change /veh KRTAP10-11 (11738290_x_at) / RFU MYO3A (11730013_a_at) / Fold change /veh MYO3A (11730013_a_at) / RFU EBF3 (11725865_a_at) / Fold change /veh EBF3 (11725865_a_at) / RFU CAMK2N1 (11719241_x_at) / Fold change /veh CAMK2N1 (11719241_x_at) / RFU C5orf56 (11738088_a_at) / Fold change /veh C5orf56 (11738088_a_at) / RFU OLFML3 (11715873_a_at) / Fold change /veh OLFML3 (11715873_a_at) / RFU LOC100653217 /// NTM (11731650_a_at) / Fold change /veh LOC100653217 /// NTM (11731650_a_at) / RFU MAPK11 (11762145_a_at) / Fold change /veh MAPK11 (11762145_a_at) / RFU FIZ1 (11724087_x_at) / Fold change /veh FIZ1 (11724087_x_at) / RFU OASL (11726364_x_at) / Fold change /veh OASL (11726364_x_at) / RFU SOX15 (11748057_x_at) / Fold change /veh SOX15 (11748057_x_at) / RFU CD79A (11719716_a_at) / Fold change /veh CD79A (11719716_a_at) / RFU HIST1H1D (11736915_at) / Fold change /veh HIST1H1D (11736915_at) / RFU CASKIN2 (11723855_a_at) / Fold change /veh CASKIN2 (11723855_a_at) / RFU LOC730098 (11760151_x_at) / Fold change /veh LOC730098 (11760151_x_at) / RFU OR4N2 (11742367_at) / Fold change /veh OR4N2 (11742367_at) / RFU PRRT2 (11749266_a_at) / Fold change /veh PRRT2 (11749266_a_at) / RFU SNX32 (11753110_a_at) / Fold change /veh SNX32 (11753110_a_at) / RFU CDHR5 (11726645_a_at) / Fold change /veh CDHR5 (11726645_a_at) / RFU RCAN1 (11760418_a_at) / Fold change /veh RCAN1 (11760418_a_at) / RFU FAM167A (11723789_a_at) / Fold change /veh FAM167A (11723789_a_at) / RFU FAM26E (11764081_at) / Fold change /veh FAM26E (11764081_at) / RFU ISYNA1 (11749810_s_at) / Fold change /veh ISYNA1 (11749810_s_at) / RFU ACY1 (11761880_at) / Fold change /veh ACY1 (11761880_at) / RFU 11764098_at / Fold change /veh 11764098_at / RFU SAMD14 (11745864_x_at) / Fold change /veh SAMD14 (11745864_x_at) / RFU NPB (11741838_a_at) / Fold change /veh NPB (11741838_a_at) / RFU TMPRSS6 (11731388_a_at) / Fold change /veh TMPRSS6 (11731388_a_at) / RFU KRTAP10-2 (11738614_at) / Fold change /veh KRTAP10-2 (11738614_at) / RFU ARHGAP8 /// PRR5-ARHGAP8 (11727945_x_at) / Fold change /veh ARHGAP8 /// PRR5-ARHGAP8 (11727945_x_at) / RFU KRTAP5-7 /// NADSYN1 (11734609_at) / Fold change /veh KRTAP5-7 /// NADSYN1 (11734609_at) / RFU RASL12 (11751679_a_at) / Fold change /veh RASL12 (11751679_a_at) / RFU CDKN2B (11736163_a_at) / Fold change /veh CDKN2B (11736163_a_at) / RFU PRF1 (11729649_at) / Fold change /veh PRF1 (11729649_at) / RFU, ZNF638 /// ZNF638-IT1 / Fold change vs veh, ZNF638 /// ZNF638-IT1 / RFU, PANK3 / Fold change vs veh, PANK3 / RFU, SH3YL1 / Fold change vs veh, SH3YL1 / RFU, ZEB2 / Fold change vs veh, ZEB2 / RFU, NRIP1 / Fold change vs veh, NRIP1 / RFU, PTTG1IP / Fold change vs veh, PTTG1IP / RFU, CAPN2 / Fold change vs veh, CAPN2 / RFU, MED14 / Fold change vs veh, MED14 / RFU, SNORA58 / Fold change vs veh, SNORA58 / RFU, C1orf63 / Fold change vs veh, C1orf63 / RFU, LRRFIP1 / Fold change vs veh, LRRFIP1 / RFU, NDUFAF7 / Fold change vs veh, NDUFAF7 / RFU, SLC12A2 / Fold change vs veh, SLC12A2 / RFU, IBTK / Fold change vs veh, IBTK / RFU, ESF1 / Fold change vs veh, ESF1 / Fold change vs veh, TMEM50B / RFU, TAOK1 / Fold change vs veh, TAOK1 / RFU, ACBD3 / Fold change vs veh, ACBD3 / RFU, TMA16 / Fold change vs veh, TMA16 / RFU, RWDD3 / Fold change vs veh, RWDD3 / RFU, BCAT1 / Fold change vs veh, BCAT1 / RFU, EDEM3 / Fold change vs veh, EDEM3 / RFU, TMEM33 / Fold change vs veh, TMEM33 / RFU, WDR75 / Fold change vs veh, WDR75 / RFU, AHCTF1 / Fold change vs veh, AHCTF1 / RFU, TFRC / Fold change vs veh, TFRC / RFU, ZDHHC17 / Fold change vs veh, ZDHHC17 / RFU, NOM1 / Fold change vs veh, NOM1 / RFU, ARL8B / Fold change vs veh, ARL8B / RFU, ZBTB11 / Fold change vs veh, ZBTB11 / RFU, TAMM41 / Fold change vs veh, TAMM41 / RFU, KIAA1704 /// LOC100996395 / Fold change vs veh, KIAA1704 /// LOC100996395 / RFU, ING1 / Fold change vs veh, ING1 / RFU, TRMT61B / Fold change vs veh, TRMT61B / RFU, FUBP3 / Fold change vs veh, FUBP3 / RFU, TP53 / Fold change vs veh, TP53 / RFU, TNKS2 / Fold change vs veh, TNKS2 / RFU, ZFP14 / Fold change vs veh, ZFP14 / RFU, ACTR2 / Fold change vs veh, ACTR2 / RFU, PPP3R1 / Fold change vs veh, PPP3R1 / RFU, PIK3R1 / Fold change vs veh, PIK3R1 / RFU, HNRNPA1 / Fold change vs veh, HNRNPA1 / RFU, RNF170 / Fold change vs veh, RNF170 / RFU, ZNF28 / Fold change vs veh, ZNF28 / RFU, RNGTT / Fold change vs veh, RNGTT / RFU, OGT / Fold change vs veh, OGT / RFU, BRD1 / Fold change vs veh, BRD1 / RFU, MARS / Fold change vs veh, MARS / RFU, ZNF655 / Fold change vs veh, ZNF655 / RFU, FAHD1 / Fold change vs veh, FAHD1 / RFU, BDP1 / Fold change vs veh, BDP1 / RFU, LRRCC1 / Fold change vs veh, LRRCC1 / RFU, ARID1A / Fold change vs veh, ARID1A / RFU, ZNF146 / Fold change vs veh, ZNF146 / RFU, ZNF330 / Fold change vs veh, ZNF330 / RFU, GPN3 / Fold change vs veh, GPN3 / RFU, C9orf123 / Fold change vs veh, C9orf123 / RFU, N4BP2L2 / Fold change vs veh, N4BP2L2 / RFU, ARFIP1 / Fold change vs veh, ARFIP1 / RFU, FAM179B / Fold change vs veh, FAM179B / RFU, BCL10 / Fold change vs veh, BCL10 / RFU, UHRF1BP1L / Fold change vs veh, UHRF1BP1L / RFU, BET1 / Fold change vs veh, BET1 / RFU, CNOT2 / Fold change vs veh, CNOT2 / RFU, ZNF268 / Fold change vs veh, ZNF268 / Fold change vs veh, ZNF507 / RFU, DGCR2 / Fold change vs veh, DGCR2 / RFU, WDSUB1 / Fold change vs veh, WDSUB1 / Fold change vs veh, HSP90B1 /// MIR3652 / RFU, ADSS / Fold change vs veh, ADSS / RFU, GK / Fold change vs veh, GK / RFU, ZNF148 / Fold change vs veh, ZNF148 / RFU, TAF9 / Fold change vs veh, TAF9 / RFU, SLC1A5 / Fold change vs veh, SLC1A5 / RFU, SLMO2 / Fold change vs veh, SLMO2 / RFU, ABCC4 / Fold change vs veh, ABCC4 / RFU, LOC101060439 /// RAP1B / Fold change vs veh, LOC101060439 /// RAP1B / RFU, RFX7 / Fold change vs veh, RFX7 / RFU, GTPBP10 / Fold change vs veh, GTPBP10 / RFU, CNEP1R1 / Fold change vs veh, CNEP1R1 / RFU, BIVM-ERCC5 /// ERCC5 / Fold change vs veh, BIVM-ERCC5 /// ERCC5 / RFU, ILF3 / Fold change vs veh, ILF3 / RFU 11762660_at / Fold change /veh 11762660_at / RFU VCAN (11757783_s_at) / Fold change /veh VCAN (11757783_s_at) / RFU DDX43 (11728927_at) / Fold change /veh DDX43 (11728927_at) / RFU KRT8 (11758188_x_at) / Fold change /veh KRT8 (11758188_x_at) / RFU NKD1 (11759106_at) / Fold change /veh NKD1 (11759106_at) / RFU SRD5A1 (11742802_a_at) / Fold change /veh SRD5A1 (11742802_a_at) / RFU TPSAB1 /// TPSB2 (11721975_s_at) / Fold change /veh TPSAB1 /// TPSB2 (11721975_s_at) / RFU GSTM3 (11746129_a_at) / Fold change /veh GSTM3 (11746129_a_at) / RFU IL23R (11737362_x_at) / Fold change /veh IL23R (11737362_x_at) / RFU TMEM51 (11727254_a_at) / Fold change /veh TMEM51 (11727254_a_at) / RFU PIWIL2 (11732686_x_at) / Fold change /veh PIWIL2 (11732686_x_at) / RFU ORM1 (11744905_x_at) / Fold change /veh ORM1 (11744905_x_at) / RFU CCDC152 (11743942_at) / Fold change /veh CCDC152 (11743942_at) / RFU ECM1 (11717891_a_at) / Fold change /veh ECM1 (11717891_a_at) / RFU IL23R (11748794_a_at) / Fold change /veh IL23R (11748794_a_at) / RFU TNFAIP8L3 (11732012_x_at) / Fold change /veh TNFAIP8L3 (11732012_x_at) / RFU MBOAT4 (11741988_at) / Fold change /veh MBOAT4 (11741988_at) / RFU 11764193_at / Fold change /veh 11764193_at / RFU TMEM53 (11763286_at) / Fold change /veh TMEM53 (11763286_at) / RFU MAGEB2 (11727129_at) / Fold change /veh MAGEB2 (11727129_at) / RFU TMEM200A (11744735_a_at) / Fold change /veh TMEM200A (11744735_a_at) / RFU CCDC152 (11751479_a_at) / Fold change /veh CCDC152 (11751479_a_at) / RFU FAM211A (11726209_a_at) / Fold change /veh FAM211A (11726209_a_at) / RFU RGS16 (11746705_a_at) / Fold change /veh RGS16 (11746705_a_at) / RFU VCAN (11755009_s_at) / Fold change /veh VCAN (11755009_s_at) / RFU RHOB (11743442_s_at) / Fold change /veh RHOB (11743442_s_at) / RFU RGS16 (11720943_a_at) / Fold change /veh RGS16 (11720943_a_at) / RFU RGS16 (11720944_at) / Fold change /veh RGS16 (11720944_at) / RFU, VPS4B / Fold change vs veh, VPS4B / RFU, CREB1 / Fold change vs veh, CREB1 / RFU, DNAJC13 / Fold change vs veh, DNAJC13 / RFU, GNAQ / Fold change vs veh, GNAQ / RFU, CDK5R1 / Fold change vs veh, CDK5R1 / RFU, ZRANB3 / Fold change vs veh, ZRANB3 / RFU, CUL4A / Fold change vs veh, CUL4A / RFU, CCNY / Fold change vs veh, CCNY / RFU, UFL1 / Fold change vs veh, UFL1 / RFU, COG3 / Fold change vs veh, COG3 / RFU, DIAPH2 / Fold change vs veh, DIAPH2 / RFU, SKA2 / Fold change vs veh, SKA2 / RFU, AFF3 / Fold change vs veh, AFF3 / RFU, LMF1 / Fold change vs veh, LMF1 / RFU, IPO11 / Fold change vs veh, IPO11 / RFU, DFFB / Fold change vs veh, DFFB / RFU, FOXP1 / Fold change vs veh, FOXP1 / RFU, CARD8 / Fold change vs veh, CARD8 / RFU, STRN3 / Fold change vs veh, STRN3 / RFU, ADK / Fold change vs veh, ADK / RFU, RASSF2 / Fold change vs veh, RASSF2 / RFU, WIPF1 / Fold change vs veh, WIPF1 / RFU, LARP1B / Fold change vs veh, LARP1B / RFU, RASA1 / Fold change vs veh, RASA1 / RFU, RB1 / Fold change vs veh, RB1 / RFU, PPFIA1 / Fold change vs veh, PPFIA1 / RFU, MAT2A / Fold change vs veh, MAT2A / RFU, CCT5 / Fold change vs veh, CCT5 / RFU, WDR92 / Fold change vs veh, WDR92 / RFU, CUX1 / Fold change vs veh, CUX1 / RFU, TTC7A / Fold change vs veh, TTC7A / RFU, TMEM135 / Fold change vs veh, TMEM135 / RFU, DEPTOR / Fold change vs veh, DEPTOR / RFU, CPM / Fold change vs veh, CPM / RFU, DNAJB6 / Fold change vs veh, DNAJB6 / RFU, CACNA2D3 / Fold change vs veh, CACNA2D3 / RFU, DTX4 / Fold change vs veh, DTX4 / RFU, TFCP2 / Fold change vs veh, TFCP2 / RFU, GMCL1 /// GMCL1P1 / Fold change vs veh, GMCL1 /// GMCL1P1 / RFU, AEBP2 / Fold change vs veh, AEBP2 / RFU, SNHG1 /// SNORD22 /// SNORD25 /// SNORD26 /// SNORD27 /// SNORD28 /// SNORD29 /// SNORD31 / Fold change vs veh, SNHG1 /// SNORD22 /// SNORD25 /// SNORD26 /// SNORD27 /// SNORD28 /// SNORD29 /// SNORD31 / Fold change (Aza/veh), C12orf56 (ProbeSet 11735607_a_at) / Fold change (ACY-1035/veh), C12orf56 (ProbeSet 11735607_a_at) / Fold change (Aza/veh), FGFR1OP (ProbeSet 11751329_s_at) / Fold change (ACY-1035/veh), FGFR1OP (ProbeSet 11751329_s_at) / Fold change (Aza/veh), VPS36 (ProbeSet 11739960_a_at) / Fold change (ACY-1035/veh), VPS36 (ProbeSet 11739960_a_at) / RFU SYPL1 (11715823_x_at) / Fold change /veh SYPL1 (11715823_x_at) / RFU IGFBP7 (11715501_s_at) / Fold change /veh IGFBP7 (11715501_s_at) / RFU REEP3 (11722064_at) / Fold change /veh REEP3 (11722064_at) / RFU IGLL1 (11728026_x_at) / Fold change /veh IGLL1 (11728026_x_at): dose or concentration left out as unconfirmed",
  "conditions": "MV-4-11 cells, 48 hours",
  "data": [
    {"smiles": "Nc1ncn([C@@H]2O[C@H](CO)[C@@H](O)[C@H]2O)c(=O)n1", "note": "[azacitidine]", "values": [
      {"measurement": "Fold change /veh OR2T12 /// OR2T33 /// OR2T8 (11738714_s_at)", "value": 1.07}
    ]}
  ]
}
